Data published in US10011607B2, “Ethynyl derivatives” (Hoffmann-La Roche Inc., priority 2015, dated 2018).

How the values were obtained:
mice (model of anxiety) [1] = settings: reported by Addex 2010; cited from earlier work
rats (model of anxiety) = settings: cited from earlier work
mice (model of anxiety) [2] = settings: reported by Addex 2010; cited from earlier work; remark: listed apart in the source
[3] = system: 6-OHDA rodent model of PD; settings: cited from earlier work
human mGlu4 receptor = human mGlu4 receptor (Homo sapiens (Human), UniProt Q14833); assay: Ca2+ mobilization in vitro assay on recombinant human mGlu4 expressed in HEK293 cells (PAM); assay type: cell-based; settings: for Emax: HEK293, maximal response in % of maximal stimulatory effect of saturating L-AP4, read-out: Eff. (%); for EC50: HEK293 cells, human mGlu4, in presence of EC20 of L-AP4, read-out: EC50 (nM) mGlu4PAM
Chain of human mGlu4 receptor (Q14833 33-912): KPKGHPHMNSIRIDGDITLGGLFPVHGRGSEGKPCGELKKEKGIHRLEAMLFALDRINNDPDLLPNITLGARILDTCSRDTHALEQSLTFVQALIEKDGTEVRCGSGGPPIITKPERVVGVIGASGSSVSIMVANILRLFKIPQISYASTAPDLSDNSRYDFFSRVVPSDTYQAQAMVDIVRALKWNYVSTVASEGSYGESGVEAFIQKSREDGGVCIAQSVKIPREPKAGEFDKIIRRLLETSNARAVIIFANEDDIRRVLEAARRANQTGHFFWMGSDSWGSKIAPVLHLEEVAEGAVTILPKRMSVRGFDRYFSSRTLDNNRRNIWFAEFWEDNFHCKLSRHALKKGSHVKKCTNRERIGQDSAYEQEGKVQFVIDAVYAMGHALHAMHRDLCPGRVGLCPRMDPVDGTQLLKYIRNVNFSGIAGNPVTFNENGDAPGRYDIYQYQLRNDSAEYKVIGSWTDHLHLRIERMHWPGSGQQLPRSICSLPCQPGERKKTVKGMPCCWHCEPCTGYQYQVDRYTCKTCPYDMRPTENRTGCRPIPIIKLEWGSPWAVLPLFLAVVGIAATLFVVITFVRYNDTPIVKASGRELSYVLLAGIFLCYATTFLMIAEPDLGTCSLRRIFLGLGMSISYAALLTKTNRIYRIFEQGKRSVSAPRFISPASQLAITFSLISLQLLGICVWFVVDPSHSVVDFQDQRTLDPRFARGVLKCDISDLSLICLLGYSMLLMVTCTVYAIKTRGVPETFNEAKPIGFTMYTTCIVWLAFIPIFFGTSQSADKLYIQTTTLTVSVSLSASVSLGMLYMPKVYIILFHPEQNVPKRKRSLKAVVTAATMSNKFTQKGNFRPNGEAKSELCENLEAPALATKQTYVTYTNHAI
Procedure, shortened: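 HEK293 cells stably expressing human mGlu4 at low level, Fluo-4AM loaded; compound (11 half-log dilutions) pre-incubated 10–30 min at 37 °C, then L-AP4 added at EC20 (determined daily). Peak fluorescence minus basal, normalized to saturating L-AP4; EC50, Hill slope and % Emax from four-parameter fit.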

mice treated with MPTP = settings: cited from earlier work

SMILES | Emax (human mGlu4 receptor) [%] | EC50 (human mGlu4 receptor) [nM] | other results
Cc1ccnc(Nc2nc(-c3cn[nH]c3)c(C)s2)n1 [ADX88178] | – | – | activity in EPM (mice (model of anxiety) [1]): active; profile in rat EPM test (rats (model of anxiety); rat, after oral dosing): anxiolytic-like profile; activity in EPM (rats (model of anxiety); rats, reported by Addex 2010): active; activity in marble burying test (mice (model of anxiety) [2]): active
N[C@@H](CCP(=O)(O)O)C(=O)O [L-AP4, (2S)-2-amino-4-phosphonobutanoic acid] | – | – | neuroprotection [3]: neuroprotective effects
C[C@@]12CC(=O)N(c3c(F)cc(C#Cc4ccccc4)cc3F)C(=O)N1CCN(c1cccnn1)C2=O [Example 47, (9aS)-7-[2,6-difluoro-4-(2-phenylethynyl)phenyl]-9a-methyl-2-pyridazin-3-yl-4,9-dihydro-3H-pyrazino[1,2-c]pyrimidine-1,6,8-trione] | 98 | 55 | –
CC12CC(=O)N(c3c(F)cc(C#Cc4ccccc4)cc3F)C(=O)N1CCN(c1cncnc1)C2=O (racemic) [Example 28, (9aRS)-7-[2,6-difluoro-4-(2-phenylethynyl)phenyl]-9a-methyl-2-pyrimidin-5-yl-4,9-dihydro-3H-pyrazino[1,2-c]pyrimidine-1,6,8-trione] | 120 | 145 | –
O=C(Nc1ccccc1)C12CC1/C(=N\O)c1ccccc1O2 (single isomer, unassigned; (-)) [(−)-PHCCC] | – | – | nigrostriatal degeneration (mice treated with MPTP): reduced nigrostriatal degeneration
CC12CC(=O)N(c3c(F)cc(C#Cc4ccccc4)cc3F)C(=O)N1CCN(c1cccnn1)C2=O (racemic) [Example 46, (9aRS)-7-[2,6-difluoro-4-(2-phenylethynyl)phenyl]-9a-methyl-2-pyridazin-3-yl-4,9-dihydro-3H-pyrazino[1,2-c]pyrimidine-1,6,8-trione] | 106 | 132 | –
COCCCN1CCN2C(=O)N(c3c(F)cc(C#Cc4ccccc4)cc3F)C(=O)C[C@@]2(C)C1=O [Example 80, (9aS)-7-[2,6-difluoro-4-(2-phenylethynyl)phenyl]-2-(3-methoxypropyl)-9a-methyl-4,9-dihydro-3H-pyrazino[1,2-c]pyrimidine-1,6,8-trione] | 132 | 135 | –
